Laboratory results as given in patent US7367941B2, “Detection and characterization of cholinergic oscillatory control in peripheral microvasculature” (Yale University, priority 2000, dated 2008).

Legend:
Assay type in all cases: in vivo, human
[1] = tested on: forehead microvasculature; experiment: Laser Doppler flowmetry of forehead flux, spectral- and time-domain analysis, during phenylephrine challenge and added atropine; conditions: for beat-to-beat % change of forehead flux: p<0.05; for flux at the forehead: mean (SE)
Description: (§1) With IRB approval, 15 healthy nonsmoking male volunteers were instructed to refrain from caffeine and other known vasoactive compounds for at least 24 hours prior and then lie recumbent in a temperature-regulated room (70±1° F.). Surface electrodes were applied for monitoring ECG and respiration, a noninvasive BP cuff was placed over the brachial artery of one arm, and a 22 gauge intravenous catheter was placed in the opposite arm. In the first eight subjects, laser Doppler flowmetry probes (Periflux 2B, Perimed, Sweden) then were applied to the skin via double-stick tape on the forehead and on the finger contralateral to the BP cuff. In the remaining seven subjects, the sites of laser Doppler monitoring were modified and additional monitors were applied (see Example 3).
(§2) The ECG, respiration, and laser Doppler flux were recorded at 250 Hz with a microprocessor-based system which consisted of analog to digital converters, commercially available data acquisition and waveform analysis software (SnapMaster, HEM Data Corp.) and customized software for beat detection. Each R-wave was identified using the recommended combination of derivative plus threshold detection of the fiducial point of the data sampled at 250 Hz (Task Force of the European Society of Cardiology and the North American Society of Pacing and Electrophysiology: Heart rate variability. Standards of measurement, physiological interpretation, and clinical use. Circulation 1996;93:1043-1065). Ectopic beats were to be replaced with an interpolated value, but none were noted. BP was recorded at 2-5 min intervals.
(§3) Following 5 min of baseline (BASE) monitoring during spontaneous ventilation BASESPONT), each subject breathed in synchrony with an audible metronome at a rate of 12 breaths/min (BASEMETRO); each segment lasted 5 min (of which the middle 200 sec were used for subsequent analysis). Subjects then received an infusion of phenylephrine, which was titrated until there was >25% decline in finger flow for 10 min. […] Five minutes of data during this PHENYL phase were recorded during SPONT and during METRO (PHENYLSPONT and PHENYLMETRO). Atropine was then administered IV in 0.25-0.50 mg increments until HR was at least 33% above PHENYL. Measurements during this PH+ATR phase were recorded for 5 min during each of the two respiratory patterns (PH+ATRSPONT and PH+ATRMETRO). The phenylephrine then was discontinued. The values from all subjects were averaged to provide the overall means±standard error (SE) for the sampling periods that are summarized in the FIGS. 5-8.
(§4) The frequency and power of the oscillations of the R-R intervals and laser Doppler flux values (flux) were characterized by frequency-domain analysis. As described in the prior art (Task Force of the European Society of Cardiology, 1996), the “R-R tachogram” and laser Doppler signal were resampled at 5 Hz, a rate more than sufficient to enable identification of oscillatory frequencies within the frequency range of interest (according to Nyquist's theorem and recent Task Force recommendations (see Task Force of the European Society of Cardiology, 1996)). An APSD was then generated for the R-R interval [APSDR-R (msec^2/Hz vs. Hz)], for the laser Doppler signal taken at the forehead [APSDFOREHEAD FLUX (mVolt^2/Hz vs. Hz)], and for the laser Doppler signal taken at the finger [APSDFINGER (mvolt^2/Hz vs. Hz)] in each subject using a traditional (Parzan) window. For each APSD, 200 sec of data were resampled at 5 Hz, providing a spectral resolution of 0.005 Hz (5 cycles per sec/1,000 data points); the mean value of the signal was subtracted from the data to eliminate its influence on the APSD. For purposes of presentation, each pair of adjacent 0.005 Hz bins was summated to provide bins with a width of 0.01 Hz. […]

[2] = tested on: R-R intervals of the electrocardiogram; experiment: ECG R-R interval variability (APSDR-R, time-domain indices), HR and BP during phenylephrine and added atropine; conditions: for effect on BP and HR (R-R interval): spontaneous and metronome breathing
Description: as §1, §2, §3, §4

finger microvasculature = experiment: Laser Doppler flowmetry of finger flux during phenylephrine infusion
Description: as §1, with “In the remaining seven subjects, the sites of laser Doppler monitoring were modified and additional monitors were applied (see Example 3).” left out
The ECG, respiration, and laser Doppler flux were recorded at 250 Hz with a microprocessor-based system which consisted of analog to digital converters, commercially available data acquisition and waveform analysis software (SnapMaster, HEM Data Corp.) and customized software for beat detection. […] BP was recorded at 2-5 min intervals.
Following 5 min of baseline (BASE) monitoring during spontaneous ventilation BASESPONT), each subject breathed in synchrony with an audible metronome at a rate of 12 breaths/min (BASEMETRO); each segment lasted 5 min (of which the middle 200 sec were used for subsequent analysis). […] Five minutes of data during this PHENYL phase were recorded during SPONT and during METRO (PHENYLSPONT and PHENYLMETRO). […]

[3] = tested on: forehead microvasculature; experiment: Laser Doppler flowmetry of forehead flux, spectral- and time-domain analysis, during phenylephrine challenge and added atropine
[4] = tested on: forehead flux and R-R oscillations; experiment: Cross power spectral density of forehead flux and R-R after normalization to mean; conditions: PHENYL
Description: FIGS. 11A-D are a graphical comparison of normalized data in the time and frequency-domains, in accordance with the present invention. The signals were normalized prior to time and frequency domain analysis, as follows: (1) LDF flow data was resampled at 5 Hz (data from FIG. 5); (2) mean flow data for the entire study segment (i.e., 5.33522) was determined; and (3) the normalized values were obtained by dividing each resampled value by the corresponding mean value for the study segment. Normalization facilitates visual inspection as well as time-domain and spectral-domain comparisons of the oscillatory signal(s) to values under different circumstances (e.g. baseline vs. challenge state) or to the values of another parameter. Although the values in FIG. 11 were normalized to the mean, it may be preferable in some settings to normalize to the median since this is less affected by outliers. […] The CPSD is calculated by determining the normalized power of a signal from the instantaneous amplitude-spectrum using the following equation: Gab=ave(SaSb*)/df where Gab=instantaneous amplitude spectral density of the sampling channels; Sa=instantaneous amplitude spectrum of channel a; Sb*=complex conjugate of Sb; df=frequency resolution. […]

## CN1[C@@H]2CC[C@H]1C[C@@H](OC(=O)C(CO)c1ccccc1)C2 (some centres unmarked) [atropine]
[1]; atropine IV added to phenylephrine infusion (PH+ATR), METRO, p=NS vs BASE
  effect on maxbin power of APSDFOREHEADFLUX: reduced power in the maxbin to near-BASE
[1]; atropine added to phenylephrine
  effect on phenylephrine-induced HF forehead oscillatory signal: nearly eliminated
[2]; atropine added to phenylephrine, SPONT and METRO
  effect on power in the max bin of APSDR-R: decrease significantly below BASE values
[2]
  effect on BP and HR (R-R interval): exacerbated the increase in BP and reversed the prolongation of the R-R interval

## CNC[C@H](O)c1cccc(O)c1 [phenylephrine]
Finger microvasculature; phenylephrine infusion
  atropine-sensitive oscillations in the finger: did not induce atropine-sensitive oscillations in the finger
Finger microvasculature; phenylephrine infusion 0.4-0.6 μg/kg/min, both METRO and SPONT, p<0.05
  Finger flux decline: approximately 50%
[3]; one subject, phenylephrine infusion, continuous intra-arterial monitoring
  maxbin frequency of the APSDFOREHEAD FLUX: 0.13 Hz
[3]; two subjects, phenylephrine bolus
  frequency at which forehead oscillations increased: approximately 0.13 Hz
[1]; METRO, PHENYL, BASE 1.3(0.5), p=0.0005
  Power/bin of the APSDFOREHEADFLUX: 6.5(2.2) mvolt^2/Hz
[1]; METRO, PHENYL, BASE 4.9 (1.1)%
  beat-to-beat % change of forehead flux: 11.9 (2.3) %
[1]; METRO, PHENYL, BASE 10.2(5.5), p=0.0003
  Maxbin power of APSDFOREHEADFLUX: 101.7(39.7) mvolt^2/Hz
[1]; PHENYLMETRO
  normalized maxbin power of APSDFOREHEADFLUX, % of average power/bin at BASE: 7,304(1,630) %
[1]; PHENYLMETRO, p>0.4 vs BASE 2.1 (0.5)
  flux at the forehead: 2.3 (0.6) volts
[1]; PHENYLSPONT
  frequency of atropine-sensitive peak in APSDFOREHEADFLUX: 0.14±0.02 Hz
  normalized maxbin power of APSDFOREHEADFLUX, % of average power/bin at BASE: 8,061(4,550) %
[1]; PHENYLSPONT, p>0.3 vs BASE 2.1 (0.5)
  flux at the forehead: 1.5 (0.6) volts
[1]; SPONT, PHENYL, BASE 3.4 (0.3)%
  beat-to-beat % change of forehead flux: 10.7 (2.2) %
[1]; phenylephrine infusion, METRO (0.20 Hz breathing)
  frequency of maxbin / oscillatory peak in APSDFOREHEADFLUX: 0.14±0.02 Hz
[2]; METRO, PHENYL, BASE 475.4 (111.7)
  power/bin for each of the 26 bins in the APSDR-R: 393.8 (100.9) msec^2/Hz
[2]; METRO, PHENYL, BASE 799.7 (138.2)%
  normalized power of the max bin (0.2 Hz) of APSDR-R: 1050.0 (205.8) %
[2]; METRO, PHENYL, BASE 4,354 (1556.0)
  power of the max bin of the RF band of APSDR-R: 4060.2 (996.2) msec^2/Hz
[2]; metronome breathing, PHENYL, BASE 4.3 (0.6)%, p=0.2
  beat-to-beat % change of R-R: 5.6 (0.7) %
[2]
  effect on BP and HR (R-R interval): increase in BP and slowing of HR
[2]; spontaneous breathing, PHENYL, BASE 3.2 (0.4)%, p=ns
  beat-to-beat % change of R-R: 3.7 (0.4) %
[4]; BASE 32.3±10.7%, p=0.004
  degree to which maxbin in IF band of CPSDFLUX&R-R reflected power in maxbin of APSDFOREHEADFLUX/mean: 7.0±1.8%
[4]; BASE 33.6±11.0%, p=0.002
  relative degree to which maxbin in IF band of APSDR-R/mean reflected power in maxbin of CPSDFLUX&R-R: 7.3±1.8%
